Measured values taken from patent US8173645B2 (Takeda San Diego, Inc., priority 2007, dated 2012).

Target: T1, glucokinase (GK), residues 12-465 of the human enzyme (Homo sapiens, UniProt P35557)
T1 construct: I.D. No. 1 corresponds to residues 12-465 of glucokinase; made in house; host or cells: E. coli DH10b-Tlr
T1 sequence (P35557 with tags, fused parts or gaps isoform P35557-2): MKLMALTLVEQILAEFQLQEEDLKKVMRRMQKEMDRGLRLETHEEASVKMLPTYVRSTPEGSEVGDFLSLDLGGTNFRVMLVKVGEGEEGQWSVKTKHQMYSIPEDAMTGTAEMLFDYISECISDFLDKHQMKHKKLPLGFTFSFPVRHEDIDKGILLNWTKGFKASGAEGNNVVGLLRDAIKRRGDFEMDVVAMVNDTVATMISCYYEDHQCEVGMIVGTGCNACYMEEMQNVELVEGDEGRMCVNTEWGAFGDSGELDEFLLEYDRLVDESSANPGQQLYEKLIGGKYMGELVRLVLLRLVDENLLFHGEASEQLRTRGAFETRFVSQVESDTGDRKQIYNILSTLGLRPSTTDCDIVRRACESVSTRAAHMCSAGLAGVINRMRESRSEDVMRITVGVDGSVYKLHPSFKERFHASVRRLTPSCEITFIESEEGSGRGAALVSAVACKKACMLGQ
Assay: Enzymatic glucokinase activity assay (KinaseGlo luminescence, ATP consumption)
Format: biochemical
Settings: 5 μM ATP, 5 mM Glucose; for EC50: GK activation, Kact = concentration giving 50% of the maximal increase in GK activity, read-out: pKact; for Emax: calculated maximal gain in GK enzyme activity at a saturating concentration of the compound, read-out: % ACTmax
Summary of the method: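 Activation measured as ATP consumption: residual ATP detected by KinaseGlo luminescence after 60 min at room temperature with 5 μM ATP and 5 mM glucose (Hepes pH 7.2, MgCl2, Brij35, DTT, 2% DMSO). Enzyme was recombinant FLAG-tagged protein from E. coli. Eleven-point twofold series were fitted nonlinearly for pKact and % ACTmax.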

## O=C(Nc1nccs1)[C@H](CC1CCCCC1)N1CCN(C(=S)NCCN2CCOCC2)CC1=O [Example 117, (S)-3-cyclohexyl-2-(4-(2-morpholinoethylcarbamothioyl)-2-oxopiperazin-1-yl)-N-(thiazol-2-yl)propanamide]
  EC50: 1580 to 2510 nM
  Emax: 97.1 to 107%

## O=C(Nc1nccs1)[C@H](CC1CCCCC1)N1CCN(C(=S)NCc2ccc(F)cc2)CC1=O [Example 120, (S)-3-cyclohexyl-2-(4-(4-fluorobenzylcarbamothioyl)-2-oxopiperazin-1-yl)-N-(thiazol-2-yl)propanamide]
  EC50: 794 to 1260 nM
  Emax: 108 to 119%

## O=C(Nc1nccs1)[C@H](CC1CCCCC1)N1CCN(S(=O)(=O)CCC(F)(F)F)CC1=O [Example 100, (S)-3-cyclohexyl-2-(2-oxo-4-(3,3,3-trifluoropropylsulfonyl)piperazin-1-yl)-N-(thiazol-2-yl)propanamide]
  EC50: 794 to 1260 nM
  Emax: ≥ 119%

## Cc1c(Cl)cc(F)cc1S(=O)(=O)N1CCN([C@@H](CC2CCCCC2)C(=O)Nc2nccs2)C(=O)C1 [Example 187, (S)-2-(4-(3-chloro-5-fluoro-2-methylphenylsulfonyl)-2-oxopiperazin-1-yl)-3-cyclohexyl-N-(thiazol-2-yl)propanamide]
  EC50: ≤ 631 nM
  Emax: 74.1 to 97%

## Cn1nc(C(F)(F)F)cc1-c1ccc(S(=O)(=O)N2CCN([C@@H](CC3CCCCC3)C(=O)Nc3nccs3)C(=O)C2)s1 [Example 193, (S)-3-cyclohexyl-2-(4-(5-(1-methyl-3-(trifluoromethyl)-1H-pyrazol-5-yl)thiophen-2-ylsulfonyl)-2-oxopiperazin-1-yl)-N-(thiazol-2-yl)propanamide]
  EC50: ≤ 631 nM
  Emax: ≤ 74%

## O=C(Nc1nccs1)[C@H](CC1CCCCC1)N1CCN(C(=S)Nc2cccc(Cl)c2)CC1=O [Example 81, (S)-2-(4-(3-chlorophenylcarbamothioyl)-2-oxopiperazin-1-yl)-3-cyclohexyl-N-(thiazol-2-yl)propanamide]
  EC50: 1580 to 2510 nM
  Emax: 97.1 to 107%

## COC(=O)c1cc(S(=O)(=O)N2CCN([C@@H](CC3CCCCC3)C(=O)Nc3nccs3)C(=O)C2)oc1C [Example 159, (S)-methyl 5-(4-(3-cyclohexyl-1-oxo-1-(thiazol-2-ylamino)propan-2-yl)-3-oxopiperazin-1-ylsulfonyl)-2-methylfuran-3-carboxylate]
  EC50: 794 to 1260 nM
  Emax: 97.1 to 107%

## COc1cccc(S(=O)(=O)N2CCN([C@@H](CC3CCCCC3)C(=O)Nc3nccs3)C(=O)C2)c1 [Example 92, (S)-3-cyclohexyl-2-(4-(3-methoxyphenylsulfonyl)-2-oxopiperazin-1-yl)-N-(thiazol-2-yl)propanamide]
  EC50: 794 to 1260 nM
  Emax: ≥ 119%

## CCOC(=O)c1nc(-c2ccc(S(=O)(=O)N3CCN([C@@H](CC4CCCCC4)C(=O)Nc4nccs4)C(=O)C3)s2)no1 [Example 167, (S)-ethyl 3-(5-(4-(3-cyclohexyl-1-oxo-1-(thiazol-2-ylamino)propan-2-yl)-3-oxopiperazin-1-ylsulfonyl)thiophen-2-yl)-1,2,4-oxadiazole-5-carboxylate]
  EC50: 1580 to 2510 nM
  Emax: ≤ 74%

## O=C(Nc1nccs1)[C@H](CC1CCCCC1)N1CCN(S(=O)(=O)c2ccc3ncsc3c2)CC1=O [Example 97, (S)-2-(4-(benzo[d]thiazol-6-ylsulfonyl)-2-oxopiperazin-1-yl)-3-cyclohexyl-N-(thiazol-2-yl)propanamide]
  EC50: 794 to 1260 nM
  Emax: 97.1 to 107%

## NC(=O)Nc1ccc(S(=O)(=O)N2CCN([C@@H](CC3CCCCC3)C(=O)Nc3nccs3)C(=O)C2)cc1 [Example 64, (S)-3-cyclohexyl-2-(2-oxo-4-(4-ureidophenylsulfonyl)piperazin-1-yl)-N-(thiazol2-yl)propanamide]
  EC50: ≥ 3160 nM
  Emax: 97.1 to 107%

## O=C(Nc1nccs1)[C@H](CC1CCCCC1)N1CCN(S(=O)(=O)c2cccc(Cl)c2)CC1=O [Example 67, (S)-2-(4-(3-chlorophenylsulfonyl)-2-oxopiperazin-1-yl)-3-cyclohexyl-N-(thiazol-2-yl)propanamide]
  EC50: ≤ 631 nM
  Emax: 108 to 119%

## Cc1ccc([N+](=O)[O-])cc1S(=O)(=O)N1CCN([C@@H](CC2CCCCC2)C(=O)Nc2nccs2)C(=O)C1 [Example 199, (S)-3-cyclohexyl-2-(4-(2-methyl-5-nitrophenylsulfonyl)-2-oxopiperazin-1-yl)-N-(thiazol-2-yl)propanamide]
  EC50: ≤ 631 nM
  Emax: 74.1 to 97%

## COc1ccc(OC)c(S(=O)(=O)N2CCN([C@@H](CC3CCCCC3)C(=O)Nc3nccs3)C(=O)C2)c1 [Example 194, (S)-3-cyclohexyl-2-(4-(2,5-dimethoxyphenylsulfonyl)-2-oxopiperazin-1-yl)N-(thiazol-2-yl)propanamide]
  EC50: 794 to 1260 nM
  Emax: 108 to 119%

## O=C(Nc1nccs1)[C@H](CC1CCCCC1)N1CCN(S(=O)(=O)c2cccc(Br)c2)CC1=O [Example 232, (S)-2-(4-(3-bromophenylsulfonyl)-2-oxopiperazin-1-yl)-3-cyclohexyl-N-(thiazol-2-yl)propanamide]
  EC50: ≤ 631 nM
  Emax: 108 to 119%

## O=C(c1cccc(S(=O)(=O)N2CCN([C@@H](CC3CCCCC3)C(=O)Nc3nccs3)C(=O)C2)c1)c1ccccn1 [Example 178, (S)-3-cyclohexyl-2-(2-oxo-4-(3-picolinoylphenylsulfonyl)piperazin-1-yl)-N-(thiazol-2-yl)propanamide]
  EC50: 794 to 1260 nM
  Emax: 74.1 to 97%

## O=C(Nc1nccs1)[C@H](CC1CCCCC1)N1CCN(S(=O)(=O)c2ccc(Cl)cc2)CC1=O [Example 43, (S)-2-(4-(4-chlorophenylsulfonyl)-2-oxopiperazin-1-yl)-3-cyclohexyl-N-(thiazol-2-yl)propanamide]
  EC50: 794 to 1260 nM
  Emax: 74.1 to 97%

## O=C(Nc1nccs1)[C@H](CC1CCCCC1)N1CCN(C(=S)NC2CCCCC2)CC1=O [Example 114, (S)-3-cyclohexyl-2-(4-(cyclohexylcarbamothioyl)-2-oxopiperazin-1-yl)-N-(thiazol-2-yl)propanamide]
  EC50: 1580 to 2510 nM
  Emax: 97.1 to 107%

## CC(C)(C)c1ccc(S(=O)(=O)N2CCN([C@@H](CC3CCCCC3)C(=O)Nc3nccs3)C(=O)C2)cc1 [Example 224, (S)-2-(4-(4-tert-butylphenylsulfonyl)-2-oxopiperazin-1-yl)-3-cyclohexyl-N-(thiazol-2-yl)propanamide]
  EC50: 794 to 1260 nM
  Emax: ≤ 74%

## Cc1cc(S(=O)(=O)N2CCN([C@@H](CC3CCCCC3)C(=O)Nc3nccs3)C(=O)C2)c(C(F)(F)F)o1 [Example 160, (S)-3-cyclohexyl-2-(4-(5-methyl-2-(trifluoromethyl)furan-3-ylsulfonyl)-2-oxopiperazin-1-yl)-N-(thiazol-2-yl)propanamide]
  EC50: 1580 to 2510 nM
  Emax: 108 to 119%

## O=C(Nc1nccs1)[C@H](CC1CCCCC1)N1CCN(S(=O)(=O)c2csc3ccccc23)CC1=O [Example 50, (S)-2-(4-(benzo[b]thiophen-3-ylsulfonyl)-2-oxopiperazin-1-yl)-3-cyclohexyl-N-(thiazol-2-yl)propanamide]
  EC50: 794 to 1260 nM
  Emax: ≤ 74%

## O=C(Nc1ncc(F)s1)C(CC1CCOCC1)N1CCN(S(=O)(=O)c2cccc(F)c2)CC1=O (stereo not drawn) [Example 148, 2-(4-(3-fluorophenylsulfonyl)-2-oxopiperazin-1-yl)-N-(5-fluorothiazol-2-yl)-3-(tetrahydro-2H-pyran-4-yl)propanamide]
  EC50: 794 to 1260 nM
  Emax: 108 to 119%

## O=C(Nc1nccs1)[C@H](CC1CCCCC1)N1CCN(S(=O)(=O)C2CCCCC2)CC1=O [Example 227]
  EC50: ≤ 631 nM
  Emax: ≥ 119%

## O=C(Nc1nccs1)[C@H](CC1CCCCC1)N1CCN(S(=O)(=O)c2cccc([N+](=O)[O-])c2)CC1=O [Example 156, (S)-3-cyclohexyl-2-(4-(3-nitrophenylsulfonyl)-2-oxopiperazin-1-yl)-N-(thiazol-2-yl)propanamide]
  EC50: 1580 to 2510 nM
  Emax: 97.1 to 107%

## Cc1ccc(F)cc1S(=O)(=O)N1CCN([C@@H](CC2CCCCC2)C(=O)Nc2nccs2)C(=O)C1 [Example 191, (S)-3-cyclohexyl-2-(4-(5-fluoro-2-methylphenylsulfonyl)-2-oxopiperazin-1-yl)-N-(thiazol-2-yl)propanamide]
  EC50: ≤ 631 nM
  Emax: 108 to 119%

## O=C(Nc1nccs1)[C@H](CC1CCCCC1)N1CCN(S(=O)(=O)c2cc(F)c(Cl)cc2F)CC1=O [Example 190, (S)-2-(4-(4-chloro-2,5-difluorophenylsulfonyl)-2-oxopiperazin-1-yl)-3-cyclohexyl-N-(thiazol-2-yl)propanamide]
  EC50: 794 to 1260 nM
  Emax: 74.1 to 97%

## O=C(Nc1nccs1)[C@H](CC1CCCCC1)N1CCN(S(=O)(=O)C2CC2)CC1=O [Example 96, (S)-3-cyclohexyl-2-(4-(cyclopropylsulfonyl)-2-oxopiperazin-1-yl)-N-(thiazol-2-yl)propanamide]
  EC50: 794 to 1260 nM
  Emax: 108 to 119%
